Data from patent US20240117431A1, “STEM-CELL BASED BIOMARKER DISCOVERY” (THE REGENTS OF THE UNIVERSITY OF CALIFORNIA, priority 2020, published 2024).

Key:
[1] = tested on: (−)TgUPRT HEK cells; test: Background incorporation of uracil analogs into RNA, streptavidin-HRP dot blot; format: cell-based; conditions: for incorporation into RNA at higher concentration: 1 mM, mimics in vivo applications, FIG. 4
Method: Transfection, labeling of cellular RNA and RNA isolation: After 48h seeding, HEK293 cells were transfected with 2.5 μg of TgUPRT WT or mutant plasmids (pKN-CMV-TgUPRT-WT or -Mutt to Mut17) per 5 cm plate using JetPrime Transfection reagent (Polyplus Transfection, France). At 40h post-transfection, cells were incubated with a final concentration of 200 μM at <1% DMSO from 400 mM stock of uracil analogs (5EU, 5VU, 5AU) or 200 mM SAMU stock for 5 h. For time course study, HEK cells were treated with 200 μM uracil analogs for 0 h, 0.5, 1, 3, 5, 12 and 24 hours. For titrating uracil analog concentration experiments, HEK cells were treated with 0 (DMSO), 50, 100, 200, 500 μM or 1 mM uracil analog for 5h. Treated HEK cells were subjected to total RNA extraction using 1 mL Trizol Reagent (Invitrogen) following the manufacturer instructions.
Biotinylation via CuAAC and IEDDA: Cu-mediated Azide-Alkyne cycloaddition (CuAAC) click reactions were performed in 50 μL reaction at 22° C. on a shaker for 30 min with click reaction cocktail containing 15 μg of total RNA, 1 mM biotin alkyne or biotin azide, fresh 4.6 mM THPTA to a final concentration of 1 mM, and fresh 10.6 mM sodium ascorbate (NaAsc) at final concentration of 1.77 mM, and 12 mM CuSO4 at final concentration of 200 μM in biotinylation reaction buffer (10 mM TrisHCI, 1 mM EDTA, pH7.4). The biotinylated RNA was purified using RNA clean & Concentrator-5 kit (Zymo Research, Cat #R1013) according to the manufacturer instructions and eluted in 21 μL of nuclease free water.
Inverse electron demand [4+2] Diels-Alder cycloaddition (IEDDA) click reactions were performed in 50 μL at 37° C. or 22° C. (RT) for 3h on mixer at 500 rpm containing 10-15 μg of total RNA, 1 mM final concentration of biotin-benzyl tetrazine (Sigma Aldrich, Cat #793329-5MG) in nuclease free water. Clicked total RNA was purified using RNA clean & Concentrator-5 kit (Zymo Research, Cat #R1013) according to the manufacturer instructions, and RNA was eluted in 21 μL of nuclease free water.
HRP-streptavidin dot blot analysis: All gel reagents were from Bio-Rad. For dot blot analysis, 2 μg of clicked total RNA was applied onto Hybond-N+ membrane (GE Healthcare) as individual dots and UV-crosslinked (254 nm) to a membrane (Stratalinker UV crosslinker). Membranes were blocked in blocking buffer (0.12 M NaCl, 0.016 M Na2HPO4, 0.008 M NaH2PO4, 0.17 M SDS) and followed by incubation with high sensitivity streptavidin-HRP (Fisher Scientific, Cat #: P121130) at 1:5000 dilution in blocking buffer for 5 minutes. The membrane was washed twice in a Wash A buffer (1:10 dilution of blocking buffer) and twice in Wash B buffer (Tris-saline buffer). […]

[2] = tested on: mutants TgUPRT; test: Phosphoribosyltransferase activity with recombinant TgUPRT mutants; format: biochemical, Toxoplasma gondii; conditions: five recombinant TgUPRT mutants, FIG. 9A
Method: (§1) Enzyme activity assay: The standard activity assay was performed by incubating 10 μL of free extract or 0.5 μg of pure His-tag enzyme with 1 mM Phosphoribosyl pyrophosphate (PRPP), 1 mM uracil, 5 mM MgCl2 in 50 mM PBS buffer pH 7.4 in a final volume of 80 μL. The reaction mixture was incubated at 37° C. for 2-5 min (300 rpm). Enzyme was inactivated by adding 80 μL of cold methanol in ice-bath and heating for 5 min at 100° C. After centrifugation at 9000×g for 5 min, samples were half-diluted with water and the NMP production was analysed by HPLC to quantitatively measure the reaction products as described below in the analytical methods. All determinations were carried out in triplicate assuming Michaelis-Menten conditions, and the maximum error was below 5%. In such conditions, one international activity unit (IU) was defined as the amount of enzyme producing 1 μmol/min of UMP under the assay conditions.
(§2) Substrate specificity studies Enzymatic synthesis of the different pyrimidine nucleoside monophosphate (NMP) derivatives was carried out by incubating 0.5 μg of pure His-tag enzyme with 1 mM PRPP, 1 mM pyrimidine base and 5 mM MgCl2 in 50 mM PBS buffer pH 7.4 (1.6-3.2% v/v DSMO). The experiments were performed according to the standard assay. Subsequently, the reaction mixture was processed as described above and the NMP production was analyzed by HPLC.
Analytical methods: The production of NMPs was quantitatively measured with an ACE EXCEL 5 μm CN-ES 250×4.6 mm equilibrated with 100% trimethyl ammonium acetate at a flow rate of 0.8 mL/min. Retention times for the reference bases and NMPs (hereafter abbreviated according to the recommendations of the IUPAC-IUB Commission on Biochemical Nomenclature) were as follows: uracil (Ura), 4.7 min; 5-azido uracil (5-AUra). […]
Following these exciting observations, a more quantitative approach to examined for differences between enzyme mutants and their enzyme kinetics with the analogs. […] Each purified enzyme was incubated with the different substrates and phosphoribosyltransferase activity was measured (FIG. 9A).

[3] = target: T1, TgUPRT (wild type) (Toxoplasma gondii, UniProt Q26998); test: Specific activity of TgUPRT variants with uracil analog substrates in vitro (phosphoribosyltransferase, HPLC); format: biochemical; conditions: 0.5 μg enzyme in 80 μL, 37° C., 2-5 min, substrates 1 mM, PBS pH 7.4; DMSO none (Uracil, 5-BrVUra), 1.6% (5-EtUra, 5-AU, 5AMU), 3.2% (5-VUra)
T1 construct: made in house; host or cells: E. coli BL21(DE3)
Method: as §1, with “In such conditions, one international activity unit (IU) was defined as the amount of enzyme producing 1 μmol/min of UMP under the assay conditions.” left out
as §2, with “The experiments were performed according to the standard assay.” left out
Analytical methods: The production of NMPs was quantitatively measured with an ACE EXCEL 5 μm CN-ES 250×4.6 mm equilibrated with 100% trimethyl ammonium acetate at a flow rate of 0.8 mL/min. […]

T1 sequence (Q26998 whole entry): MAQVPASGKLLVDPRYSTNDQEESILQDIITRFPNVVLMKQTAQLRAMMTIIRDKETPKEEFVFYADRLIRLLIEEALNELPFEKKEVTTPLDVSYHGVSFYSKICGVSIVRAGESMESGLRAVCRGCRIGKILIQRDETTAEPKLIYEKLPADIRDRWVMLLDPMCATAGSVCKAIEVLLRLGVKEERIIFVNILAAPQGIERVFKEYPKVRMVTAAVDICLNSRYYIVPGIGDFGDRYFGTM

| SMILES | incorporation into RNA at higher concentration [1] | background incorporation into RNA ([1]; (−)TgUPRT HEK cells, FIGS. 3A, 3B) | reactivity with the mutants (phosphoribosyltransferase activity) [2] | Specific Activity, TgUPRT [3] |
| --- | --- | --- | --- | --- |
| C#Cc1c[nH]c(=O)[nH]c1=O [compound 1, 5-ethynylpyrimidine-2,4(1H,3H)-dione] | very robust incorporation | low level of background incorporation | 10 IU/mg | reactive |
| C=Cc1c[nH]c(=O)[nH]c1=O [compound 2, 5-Vinylpyrimidine-2,4(1H,3H)-dione] | not observed | – | increased dramatically | undetectable activity |
